Source: patent US10921327B2, “Probes for quantitative imaging of thiols in various environments” (Baylor College of Medicine, priority 2014, dated 2021)
Several values for one entry are separate records, joined by “and”; a condition that tells them apart may be missing. Identical values can stand only once.

Key:
Solubility = format: physicochemical; settings: PBS buffer, aqueous buffer
[1] = UV-Vis absorption, fluorescence and quantum yield; format: physicochemical; settings: for Quantum Yield (PBS): λex = 479 nm (TQ Green), 406 nm (TQ Green-GSH); for Quantum Yield (Methanol): Rhodamine 123 as standard
Description: TQ Green absorbs at 479 nm and fluoresces at 590 nm (λex=488 nm, FIG. 3). The extinction coefficients of TQ Green and TQ Green-GSH at their maximum absorption wavelengths are (2.3±0.2)×10^4 M^−1·cm^−1 (a, =479 nm, Table 2) and (1.6±0.2)×10^4 M^−1·cm^−1 (λmax=407 nm, Table 1), respectively. Upon reacting with GSH, the Abs and Fl peaks shift hypsochromically to 406 and 463 nm (λex=405 nm), respectively. The Abs of TQ Green and TQ Green-GSH (the adduct between TQ Green and GSH) are close to 488 and 405 nm, respectively, which are two commonly used laser wavelengths for confocal microscopes. […]
NMR spectra were recorded on a Varian NMR (^1H at 400 MHz) spectrometer. Chemical shifts (δ) were given in ppm with reference to solvent signals [^1H NMR: CDCl3 (7.26), CD3OD (3.31)]. UV-Vis measurements were performed with 2×10 mm quartz cuvette in Cary 60 UV-is Spectrometer. Fluorescence measurements were performed with the same quartz cuvette in Cary Eclipse Fluorescence Spectrophotometer with an excitation slit of 5 nm, an emission slit of 10 nm and PMT at 650 V. Flash chromatography was performed on a Teledyne ISCO CombiFlashRf200. Olympus FV1000 laser scanning confocal microscope system was used for cell imaging. ESI mass spectrometry was measured on a BrukerMS microTOF ESI, at the Shared Equipment Authority at Rice University. Flow cytometry was performed on BD LSR II Flow Cytometer at BCM core facilities.
As summarized in Table 5, quantum yields of synthesized GSH probes and a GSH adduct with Rhodamine 123 as the standard were analyzed. Quantum yields were determined using a comparative method described previously. The bromine atom on the phenyl ring potentially enhances the push-pull effect of the coumarin-based fluorophore, thus increases the quantum yield.

[2] = Log D in octanol-PBS (pH 7.4) biphasic system; format: physicochemical; settings: octanol-PBS pH 7.4, read-out: Log D (pH = 7.4)
Description: To further understand TQ Green distribution between hydrophobic and hydrophilic environments, Applicants measured the Log D values of TQ Green and TQ Green-GSH using an octanol-PBS (pH 7.4) biphasic system (Table 2). […] In addition, Applicants discovered that the absorbance maximum of TQ Green shifts from 480 nm to 455 nm when changing the solvents from PBS to octanol. Applicants hypothesize that if TQ Green is distributed in lipid membranes, the absorbance maximum and fluorescence intensity will change. […] Consistent with the Log D measurements, this experiment also supports the hypothesis that TQ Green accumulates in lipid membranes. Considering the high quantum yield of TQ Green in hydrophobic solvents, lipid enrichment of TQ Green seemingly complicates intracellular GSH quantification. […] However, the Kd′ values may be different under calibration conditions and inside cells, which may introduce a systemic error.

[3] = Reaction specificity of TQ Green: cysteine; settings: 0.1 mM cysteine, within 2 hours, PBS pH 7.4
Method: (§1) For clarity, data points for TQ Green reaction with BSA, Cysteine, and PBS were offset by 0.1 units from each other on the y axis. Data points represent the absorbance of reaction mixtures of TQ Green (32 μM) with cysteine (100 μM, blue), BSA (5 mM, green), GSH (20 mM red) and water (black) in PBS (pH 7.4) at 480 nm, the maximum absorption wavelength for TQ Green.
Free cysteine and the surface exposed cysteine residues on proteins inside cells could potentially compete with GSH in TQ Green reactions. It is known that, in contrast to the 1-10 mM concentrations of GSH inside cells, cysteine concentrations are in the range of 0.1-1 mM, approximately an order of magnitude lower than GSH levels. Assuming cysteine and GSH have similar reactivities, the presence of cysteine will introduce an error no more than 10%.

BSA = BSA (Bos taurus, UniProt P02769); test: Reaction specificity of TQ Green: BSA; set-up: species or system bovine; settings: 5 mM BSA, PBS pH 7.4
Method: as §1
Proteins containing free thiol groups may also react with TQ Green to affect the measurement of GSH levels. On average, the protein concentration inside cells is 3×10^6 molecules/μm^3, which corresponds to a concentration of 5 mM. Assuming there is one free thiol on each protein molecule, 5 mM of bovine serum albumin (BSA) solution should reasonably mimic intracellular proteins because a) BSA has a free thiol on its surface; and b) the molecular weight of BSA (65 kDa) is close to the average molecular weight of intracellular proteins (˜50 kDa). […] Through these experiments and analyses, Applicants can conclude that TQ Green has good specificity towards GSH under physiological conditions.

cells = test: Confocal imaging of probe interacting with cells (cell penetration); format: cell-based
Method: FIG. 10 provides confocal images at 488 nm channel of TQ Green (acid form, FIG. 10A), and TQ Green-AM (ester form, FIG. 10B) interacting with cells.
All cell lines used in this study were purchased from American Type Culture Collection (ATCC) and grown in DMEM (Gibco, 11965) media supplemented with 10% FBS and 1% 1003 Pen Strep (Gibco). Cells were cultured under a controlled atmosphere (37° C., 5% CO2). Glass dishes were used for cell culture due to confocal scanning requirements. Cells were treated with TQ Green-AM (20 nM-1 μM with 0.0025-1% DMSO in PBS) for 30 minutes, followed by two washing steps with tryptan blue and PBS prior to imaging. Fluorescent images were acquired with 405 nm laser/430-470 nm filter and 488 nm laser/575-620 nm filter. All the microscope settings were kept consistent in each experiment.

BSA, sequence (P02769 25-607): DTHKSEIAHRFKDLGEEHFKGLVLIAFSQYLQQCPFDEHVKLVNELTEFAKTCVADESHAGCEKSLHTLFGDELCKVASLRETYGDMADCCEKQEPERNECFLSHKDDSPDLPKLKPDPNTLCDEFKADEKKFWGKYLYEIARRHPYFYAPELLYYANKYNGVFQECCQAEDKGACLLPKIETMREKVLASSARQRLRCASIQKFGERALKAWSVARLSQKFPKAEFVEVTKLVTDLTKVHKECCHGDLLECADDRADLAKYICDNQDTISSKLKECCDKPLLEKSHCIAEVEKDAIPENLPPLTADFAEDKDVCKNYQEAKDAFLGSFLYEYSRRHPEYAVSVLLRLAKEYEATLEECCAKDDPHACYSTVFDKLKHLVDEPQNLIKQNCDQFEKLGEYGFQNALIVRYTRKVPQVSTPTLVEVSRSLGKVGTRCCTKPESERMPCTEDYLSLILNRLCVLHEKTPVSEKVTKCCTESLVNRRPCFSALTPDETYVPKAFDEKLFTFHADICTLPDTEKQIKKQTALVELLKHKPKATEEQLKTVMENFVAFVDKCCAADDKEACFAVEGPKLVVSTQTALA

solubility (Solubility): > 500 µM
Abs Max Wavelength ([1]; PBS pH 7.4): 479 nm and 480 nm
Fl Emission Max Wavelength ([1]; PBS pH 7.4, λex = 488 nm (TQ Green), λex = 405 nm (TQ Green-GSH)): 590 nm
Quantum Yield (PBS) [1]: 0.0094±0.0004
Quantum Yield (PBS) ([1]; listed as drawing 19): 0.0094 ± 0.0004
Quantum Yield (Methanol) [1]: 0.16±0.05
Quantum Yield (Methanol) ([1]; listed as drawing 18): 0.16 ± 0.05
Absorbance maximum in octanol ([1]; octanol): 455 nm
logD [2]: 0.7
Reaction with BSA (BSA): little reaction
Cell penetration (confocal, 488 nm channel) (cells): trapped in the membrane
Structure (SMILES): CCN(CC)c1ccc2cc(/C=C/C(=O)c3ccc(C(=O)O)cc3Br)c(=O)oc2c1 [TQ Green]
Reaction with cysteine [3]: did not observe appreciable reactions
